This passage reports IC50 results from article PMC9796130, “The First Structure of Human MTHFD2L and Its Implications for the Development of Isoform‐Selective Inhibitors” (Chemmedchem, 2022).

The target of the assay is T1, MTHFD2L (Homo sapiens, UniProt Q9H903).
T1 construct: amino acids 50–347, His-tagged
T1 sequence (Q9H903 50-347): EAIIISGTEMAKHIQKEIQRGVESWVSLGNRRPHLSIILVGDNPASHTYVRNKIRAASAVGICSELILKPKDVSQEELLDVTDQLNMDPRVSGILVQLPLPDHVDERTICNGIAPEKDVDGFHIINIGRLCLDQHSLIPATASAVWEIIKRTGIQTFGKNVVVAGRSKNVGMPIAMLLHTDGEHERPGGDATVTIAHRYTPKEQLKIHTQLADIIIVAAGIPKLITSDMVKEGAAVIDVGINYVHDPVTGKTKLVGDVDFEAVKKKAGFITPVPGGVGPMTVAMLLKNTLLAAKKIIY
As to the kind of experiment: X-ray co-crystal structure ([…] Å); IC50 on purified enzyme by NAD(P)H-Glo luminescence assay. The class given is biochemical.

By IC50 is commonly meant the concentration at which inhibition is half-maximal.

As for `Nc1nc(N)c(NC(=O)Nc2ccc(C(=O)NC(CCC(=O)O)C(=O)O)cc2)c(O)n1` (stereo not shown) [TH7299], half-maximal inhibition (IC50) required 174 nM.
